Test results: US3939204A, “Radioactive functional diagnostic agents” (priority 1972, dated 1976)
Counter-ions that a name gives are not always drawn.

Tests used:
[1] = distribution in the body as function of time after intravenous administration, measured by scinticamera; format: in vivo, human; conditions: for Time of Appearance in Gallbladder / Time of Appearance in Intestine / Blood T 1/2 / Liver T 1/2 / Maximum Liver Accumulation: approximately 0.25 millicurie per injection; for Blood T 1/2: elimination from blood into liver cells; for Liver T 1/2: elimination from liver cells into bile ducts and gallbladder; for Maximum Liver Accumulation: time of maximum accumulation
Method: These compounds were tested intravenously on humans. The total quantity of radioactivity per injection of the respectively injected aqueous test solution was approximately 0.25 millicurie in each instance.
The distribution in the body as function of time after administration was measured by scinticamera in the usual manner.

[2] = background statement in words; cited from earlier work

Time of Appearance in Gallbladder ([1]; humans, intravenous) [min] | Time of Appearance in Intestine ([1]; humans, intravenous) [min] | Blood T 1/2 ([1]; humans, intravenous) [min] | Liver T 1/2 ([1]; humans, intravenous) [min] | Maximum Liver Accumulation ([1]; humans, intravenous) [min] | enterohepatic cycle (reabsorption from the intestine into the bloodstream) ([1]; humans, intravenous, in words) | liver passage (from T 1/2 values) ([1]; humans, intravenous, in words) | SMILES | times of appearance in the intestine and gallbladder, compared with B and C ([1]; humans, intravenous, in words) | concomitant gallbladder representation ([1]; patients having a healthy liver) | elimination from the liver [2] | maximum accumulation in the liver [2]
25.5 | 14.6 | 3.22 | 3.19 | 16.5 | absence of an enterohepatic cycle | markedly faster liver passage | O=C(COCC(=O)Nc1c(I)cc(I)c(C(=O)O)c1I)Nc1c(I)cc(I)c(C(=O)O)c1I [A, diglycolic acid bis(3-carboxy-2,4,6-triiodoanilide)-131-iodine N-methylglucamine salt] | markedly shorter than in the comparison substances B and C | a concomitant gallbladder representation is obtained | – | –
45 | 45 | 8.14 | 10.24 | 30 | – | – | O=C1OC2(c3cc(I)c(O)c(I)c3Oc3c2cc(I)c(O)c3I)c2c(Cl)c(Cl)c(Cl)c(Cl)c21 [B, tetrachlorotetraiodofluorescein-131-iodine sodium salt] | – | – | after a longer period of time | after a longer period of time
